{
  "source": "patent US8846012B2",
  "about": "“Melanin production inhibitor” (Pola Chemical Industries Inc., priority 2008, dated 2014)",
  "tested_on": "normal human melanocytes",
  "assay": "Melanin production inhibition test using cultured normal human melanocytes (14C-thiouracil incorporation)",
  "assay_type": "cell-based",
  "details": "control = 100%; for activity at 10 µM: addition amount 10 μM; for activity at 8 µM: addition amount 8.0 μM; for activity at 5 µM: addition amount 5.0 μM; for activity at 1.6 µM: addition amount 1.6 μM; for activity at 3.1 µM: addition amount 3.1 μM; for activity at 20 µM: addition amount 20 μM",
  "procedure": "The inhibitory effect on melanin production of the melanin production inhibitor of the present invention can be measured using thiouracil which is incorporated specifically into cells in a melanin synthesis process in the cells. For example, the amount of melanin production can be measured by measuring an amount of thiouracil incorporated into cells by measuring an amount of radiation with radiolabeled thiouracil.\nThe inhibitory effect on melanin production of Compound 1 was evaluated using 2-thiouracil (^14C-labeled 2-thiouracil was used in this test) which is incorporated specifically into melanin in an intracellular melanin synthesis process. Complete medium for culture of melanocytes (manufactured by Kurabo Industries Ltd.) was added to 15 wells in a 24-well plate in an amount of 2 mL per well, and normal human melanocytes (manufactured by Kurabo Industries Ltd.) were seeded into the wells at a concentration of 1.5×10^4 cells/cm^2. The cells were cultured in a 5% carbon dioxide atmosphere at 37° C. for 24 hours. Thereafter, the medium in all the wells was exchanged under the following conditions: fresh complete medium for culture of melanocytes (control) was used in three wells; each of complete medium for culture of melanocytes, which including Compound 1 at concentrations of 1.0 μM, 2.0 μM, and 4.0 μM, was used in a total of nine wells including three wells for each concentration; and complete medium for culture of melanocytes, each of which including arbutin (positive control) known as a melanin production inhibitor at a concentration of 0.5 mM (500 μM), was used in the other three wells. Further, 2-[2-^14C]thiouracil (^14C-labeled thiouracil) was added to each of these 15 wells at 0.25×10^−6 Ci (curie). Then, the cells were cultured for further 3 days under the same conditions as the above. After the completion of culture, the culture medium was removed from the wells, and the cells were washed with phosphate buffered physiological saline (PBS) and then separated from the bottoms of the wells with medium including trypsin and EDTA to prepare cell suspensions, followed by centrifugation to collect the cells. The number of the cells was counted using a hemocytometer. Thereafter, the amounts of ^14C-thiouracil in the cells collected from each well (0.25×10^−6 Ci) were measured using a liquid scintillation counter (ALOKA CO., LTD.). The percentages of an amount of radioactivity in the cells cultured in the medium including the test substances with respect to an amount of radioactivity in the cells collected from the well of the control were calculated as amounts of melanin (%). That is, as the amount of radioactivity incorporated into the cells is smaller, the amount of melanin is evaluated to be smaller, i.e., the melanin inhibition effect of the component added is evaluated to be larger.\nInhibitory effects on melanin production of Compounds 2 to 39 (however, the effects of Compound 9 and 15 were not measured) were examined in the same procedure as in Test Example 1.\nThese were examined in the same procedure as in Test Example 1.\nFurther, the results of melanin production inhibition by treatment with the respective test compounds, determined in the same procedure as in Test Example 1, are also shown in the table.",
  "key": {"[1]": {"details": "Homo sapiens, Melanocyte, Table 2"}},
  "data": [
    {"smiles": "COc1ccc(C(OCCN)(c2ccccc2)c2ccc(OC)cc2)cc1", "note": "[Compound 36, 2-[[bis(4-methoxyphenyl)phenyl]methyloxy]ethylamine]", "values": [
      {"measurement": "activity at 10 µM", "setting": "[1]", "result": "71.7 ± 5.1", "unit": "%"}
    ]},
    {"smiles": "OC[C@H]1O[C@@H](Oc2ccc(O)cc2)[C@H](O)[C@@H](O)[C@@H]1O", "note": "[Arbutin, arbutin, reference compound]", "values": [
      {"measurement": "activity at 500 µM", "setting": "Homo sapiens, Melanocyte, addition amount 500 μM, mean ± SD of three samples", "result": "64.6 ± 2.3", "unit": "%"}
    ]},
    {"smiles": "O=C(O)[C@H](CO)NC(c1ccccc1)(c1ccccc1)c1ccccc1", "note": "[Compound 39, N-(triphenylmethyl) serine]", "values": [
      {"measurement": "activity at 8 µM", "setting": "[1]", "result": "54.9 ± 5.5", "unit": "%"}
    ]},
    {"smiles": "COc1ccc(C(NCCO)(c2ccccc2)c2ccccc2)cc1", "note": "[Compound 33, 2-[[diphenyl(4-methoxyphenyl)]methylamino]ethanol]", "values": [
      {"measurement": "activity at 5 µM", "setting": "[1]", "result": "67.7 ± 5.1", "unit": "%"}
    ]},
    {"smiles": "O[C@@H]1CCN(C(c2ccccc2)(c2ccccc2)c2ccccc2)C1", "note": "[Compound 12, (R)-1-triphenylmethyl-3-pyrrolidinol]", "values": [
      {"measurement": "activity at 5 µM", "setting": "[1]", "result": "62.9 ± 3.7", "unit": "%"}
    ]},
    {"smiles": "OCCN(CCO)C(c1ccccc1)(c1ccccc1)c1ccccc1", "note": "[Compound 37, N,N-[bis(2-hydroxyethyl)]-N-(triphenylmethyl)amine]", "values": [
      {"measurement": "activity at 4 µM", "setting": "Homo sapiens, Melanocyte, Table 2, addition amount 4.0 μM", "result": "69.6 ± 3.9", "unit": "%"}
    ]},
    {"smiles": "COc1ccc(C(NCCO)(c2ccccc2)c2ccc(OC)cc2)cc1", "note": "[Compound 34, 2-[[bis(4-methoxyphenyl)phenyl]methylamino]ethanol]", "values": [
      {"measurement": "activity at 5 µM", "setting": "[1]", "result": "71.4 ± 1.9", "unit": "%"}
    ]},
    {"smiles": "Cc1ccc(C(c2ccccc2)(c2ccccc2)N2CCCCC2)cc1", "note": "[Compound 25, [[diphenyl(4-methylphenyl)]methyl]piperidine]", "values": [
      {"measurement": "activity at 1.6 µM", "setting": "[1]", "result": "48 ± 1.9", "unit": "%"}
    ]},
    {"smiles": "O=C1CCC(=O)N1C(c1ccccc1)(c1ccccc1)c1ccccc1", "note": "[Compound 11, 1-(triphenylmethyl)succinimide]", "values": [
      {"measurement": "activity at 15 µM", "setting": "Homo sapiens, Melanocyte, Table 2, addition amount 15 μM", "result": "53.7 ± 0.9", "unit": "%"}
    ]},
    {"smiles": "COc1ccc(C(OCCN)(c2ccccc2)c2ccccc2)cc1", "note": "[Compound 35, 2-[[diphenyl (4-methoxyphenyl)]methyloxy]ethylamine]", "values": [
      {"measurement": "activity at 5 µM", "setting": "[1]", "result": "80.4 ± 8.8", "unit": "%"}
    ]},
    {"smiles": "COc1ccc(C(O)(c2ccccc2)c2ccc(OC)cc2)cc1", "note": "[Compound 18, [bis(4-methoxyphenyl)phenyl]methanol]", "values": [
      {"measurement": "activity at 10 µM", "setting": "[1]", "result": "55.3 ± 3.4", "unit": "%"}
    ]},
    {"smiles": "COc1ccc(C(c2ccccc2)(c2ccccc2)N2CCCCC2)cc1", "note": "[Compound 19, 1-[[(4-methoxyphenyl)diphenyl]methyl]piperidine]", "values": [
      {"measurement": "activity at 3.1 µM", "setting": "[1]", "result": "51.5 ± 5.7", "unit": "%"}
    ]},
    {"smiles": "Cc1ccc(C(c2ccc(C)cc2)(c2ccc(C)cc2)N2CCCCC2)cc1", "note": "[Compound 27, 1-[tris(4-methylphenyl)methyl]piperidine]", "values": [
      {"measurement": "activity at 3.1 µM", "setting": "[1]", "result": "47.5 ± 0.6", "unit": "%"}
    ]},
    {"smiles": "OC(c1ccccc1)c1ccc2ccccc2c1", "note": "(stereo not shown) [Compound 13, [(naphthyl)phenyl]methanol]", "values": [
      {"measurement": "activity at 20 µM", "setting": "[1]", "result": "68.7 ± 5.2", "unit": "%"}
    ]},
    {"smiles": "Oc1ccc(C(c2ccccc2)(c2ccccc2)c2ccccc2)cc1", "note": "[4-Tritylphenol]", "values": [
      {"measurement": "activity at 1.25 µM", "setting": "Homo sapiens, Melanocyte, Table 3, addition amount 1.25 μM", "result": "27 ± 0.4", "unit": "%"}
    ]},
    {"smiles": "OC(c1ccccc1)(c1ccccn1)c1ccccn1", "note": "[Compound 16, di(2-pyridyl)phenylmethanol]", "values": [
      {"measurement": "activity at 100 µM", "setting": "Homo sapiens, Melanocyte, Table 2, addition amount 100 μM", "result": "91.5 ± 4.6", "unit": "%"}
    ]},
    {"smiles": "c1ccc(C(c2ccccc2)(c2ccccc2)N2CCNCC2)cc1", "note": "[Compound 7, 1-(triphenylmethyl)piperazine]", "values": [
      {"measurement": "activity at 6 µM", "setting": "Homo sapiens, Melanocyte, Table 2, addition amount 6.0 μM", "result": "51.1 ± 5.8", "unit": "%"}
    ]},
    {"smiles": "Cc1ccc(C(c2ccc(C)cc2)N2CCCC2)cc1", "note": "[Compound 29, 1-[bis(4-methylphenyl)methyl]pyrrolidine]", "values": [
      {"measurement": "activity at 20 µM", "setting": "[1]", "result": "49 ± 1.9", "unit": "%"}
    ]},
    {"smiles": "c1ccc(C(c2ccccc2)(c2ccccc2)N2CCOCC2)cc1", "note": "[Compound 8, N-(triphenylmethyl)morpholine]", "values": [
      {"measurement": "activity at 2.5 µM", "setting": "Homo sapiens, Melanocyte, Table 2, addition amount 2.5 μM", "result": "39.2 ± 10.7", "unit": "%"}
    ]},
    {"smiles": "CCNC(c1ccccc1)(c1ccccc1)c1ccccc1", "note": "[Compound 30, N-(triphenylmethyl)-N-ethylamine]", "values": [
      {"measurement": "activity at 8 µM", "setting": "[1]", "result": "41.4 ± 0.7", "unit": "%"}
    ]},
    {"smiles": "CC(c1ccccc1)(c1ccc(O)cc1)c1ccc(O)cc1", "note": "[4,4′-(1-Phenylidene)-bisphenol]", "values": [
      {"measurement": "Amount of melanin", "setting": "Table 3, addition amount 3.0 μM", "result": "44.8 ± 1.0", "unit": "%"}
    ]},
    {"smiles": "c1ccc(C(c2ccccc2)N2CCCC2)cc1", "note": "[Compound 28, 1-(diphenylmethyl)pyrrolidine]", "values": [
      {"measurement": "activity at 60 µM", "setting": "Homo sapiens, Melanocyte, Table 2, addition amount 60 μM", "result": "77.3 ± 5.6", "unit": "%"}
    ]},
    {"smiles": "Cc1ccc(C(O)(c2ccccc2)c2ccc(C)cc2)cc1", "note": "[Compound 23, [bis(4-methylphenyl)phenyl]methanol]", "values": [
      {"measurement": "activity at 3.1 µM", "setting": "[1]", "result": "47.2 ± 0.2", "unit": "%"}
    ]},
    {"smiles": "COc1ccc(C(O)(c2ccccc2)c2ccccc2)cc1", "note": "[Compound 17, [diphenyl(4-methoxyphenyl)]methanol]", "values": [
      {"measurement": "activity at 10 µM", "setting": "[1]", "result": "37 ± 1.5", "unit": "%"}
    ]},
    {"smiles": "COc1ccc(C(OCCO)(c2ccccc2)c2ccccc2)cc1", "note": "[Compound 31, 2-[[diphenyl(4-methoxyphenyl)]methyloxy]ethanol]", "values": [
      {"measurement": "activity at 3.1 µM", "setting": "[1]", "result": "37.6 ± 3.3", "unit": "%"}
    ]},
    {"smiles": "OCC(O)COC(c1ccccc1)(c1ccccc1)c1ccccc1", "note": "(stereo not shown) [Compound 38, 1,2-dihydroxy-3-(triphenylmethyloxy)propane]", "values": [
      {"measurement": "activity at 8 µM", "setting": "[1]", "result": "75.6 ± 0.2", "unit": "%"}
    ]},
    {"smiles": "COc1ccc(C(c2ccccc2)(c2ccc(OC)cc2)N2CCCCC2)cc1", "note": "[Compound 20, 1-[[bis(4-methoxyphenyl)phenyl]methyl]piperidine]", "values": [
      {"measurement": "activity at 3.1 µM", "setting": "[1]", "result": "73.2 ± 3.2", "unit": "%"}
    ]},
    {"smiles": "Cc1ccc(C(O)(c2ccc(C)cc2)c2ccc(C)cc2)cc1", "note": "[Compound 22, tris(4-methylphenyl)methanol]", "values": [
      {"measurement": "activity at 1.6 µM", "setting": "[1]", "result": "50.6 ± 2", "unit": "%"}
    ]},
    {"smiles": "Oc1ccc(C2(c3ccc(O)cc3)CCCCC2)cc1", "note": "[4,4′-Cyclohexylidenebisphenol]", "values": [
      {"measurement": "activity at 3 µM", "setting": "Homo sapiens, Melanocyte, Table 3, addition amount 3.0 μM", "result": "38.3 ± 2.5", "unit": "%"}
    ]},
    {"smiles": "c1ccc(C(c2ccccc2)(c2ccncc2)N2CCCCC2)cc1", "note": "[Compound 10, 1-{[diphenyl(4-pyridyl)]methyl}piperidine]", "values": [
      {"measurement": "activity at 0.3 µM", "setting": "Homo sapiens, Melanocyte, Table 2, addition amount 0.3 μM", "result": "77.3 ± 0.4", "unit": "%"}
    ]},
    {"smiles": "Cc1ccc(C(O)(c2ccccc2)c2ccccc2)cc1", "note": "[Compound 24, [diphenyl(4-methylphenyl)]methanol]", "values": [
      {"measurement": "activity at 3.1 µM", "setting": "[1]", "result": "51.6 ± 1.6", "unit": "%"}
    ]},
    {"smiles": "CC(c1ccc(O)cc1)c1ccc(O)cc1", "note": "[4,4′-Ethylidenebisphenol]", "values": [
      {"measurement": "activity at 25 µM", "setting": "Homo sapiens, Melanocyte, Table 3, addition amount 25 μM", "result": "30.5 ± 6.1", "unit": "%"}
    ]},
    {"smiles": "COc1ccc(C(c2ccc(OC)cc2)(c2ccc(OC)cc2)N2CCCCC2)cc1", "note": "[Compound 21, 1-[tris(4-methoxyphenyl)methyl]piperidine]", "values": [
      {"measurement": "activity at 12.5 µM", "setting": "Homo sapiens, Melanocyte, Table 2, addition amount 12.5 μM", "result": "53.5 ± 0.4", "unit": "%"}
    ]},
    {"smiles": "COc1ccc(C(OCCO)(c2ccccc2)c2ccc(OC)cc2)cc1", "note": "[Compound 32, 2-[bis(4-methoxyphenyl)phenylmethyloxy]ethanol]", "values": [
      {"measurement": "activity at 3.1 µM", "setting": "[1]", "result": "58.8 ± 7.1", "unit": "%"}
    ]}
  ]
}
